From patent US8859756B2, “Stereoselective synthesis of phosphorus containing actives” (Gilead Pharmasset LLC, priority 2010, dated 2014)
Like-named read-outs stand apart in the source and are kept apart here.

Columns and labels:
Type in all cases: cell-based
HCV RNA replication = test: HCV Inhibition Assay (replicon; RT-PCR or luciferase reporter readout); settings: concentration for 90% inhibition of HCV replication, Clone A or ET-lunet replicon cells, 4 days
Protocol: Clone A or ET-lunet cells were seeded at a density of 1500 or 3000 cells per well in a 96-well plate, respectively. Test compounds serially diluted in culture medium without G418 were added to cells so that the final DMSO concentration was 0.5%. Plates were incubated at 37° C. in a 5% CO2 atmosphere for 4 days. Inhibition of HCV RNA replication was determined by real time PCR (RT-PCR) or by measuring the levels of luminescence expressed via the luciferase reporter gene encoded within the ET replicon. Briefly, for the RT-PCR assay, total RNA was extracted using the RNeasy-96 kit as recommended by the manufacturer (Qiagen, Valencia, Calif.), reversed transcribed into cDNA, and amplified using primer and probe mix for HCV 5′-NTR RNA and human ribosomal RNA (rRNA) in a one-step RT-PCR reaction as described previously (Stuyver, L. J. et al. Antiviral Chem. Chemother. (2006) 17, 79-87). A relative quantification method was used to determine the extent of inhibition. The threshold cycle (Ct) of rRNA was subtracted from the Ct of HCV RNA (ΔCt). The average ΔCt of the DMSO cell controls was then subtracted from the ΔCt of the compound treated sample (ΔΔCt). Percent inhibition was determined by using the following equation: %=(1−(2^−ΔΔC^t))×100. For the luciferase-based replicon assay, luminescence was measured by using a Victor3 plate reader (Perkin-Elmer, Boston, Mass.) following the addition of Bright-Glo reagent as recommended by the manufacturer (Promega, Madison, Wis.). Percent inhibition of HCV replication was determined by comparing the change in luminescence of the drug treated wells versus the DMSO cell controls. EC50 and EC90 values, the concentrations at which 50% and 90% inhibition were achieved, were determined using the GraphPad Prism software (San Diego, Calif.).

[1] = Cell Cytotoxicity Assays (MTS dye); settings: human, 50% inhibition value, cell line not given; for CC50: 8 days
Protocol: (§1) Cell Cytotoxicity Assays.
(§2) Each compound (serially diluted from 100 μM) was added to Huh7 (2×10^3 cells/well), HepG2 (2×10^3 cells/well), BxPC3 (2×10^3 cells/well), or CEM (5×10^3 cells/well) cells and allowed to incubate for 8 days at 37° C. A medium only control was used to determine the minimum absorbance value […]. At the end of the growth period, MTS dye from the CellTiter 96 Aqueous One Solution Cell Proliferation Assay kit (Promega) was added to each well and the plate was incubated for an additional 2 hours. The absorbance at 490 nm was read with a Victor3 plate reader (Perkin Elmer) using the medium only control wells as blanks. The 50% inhibition value (CC50) was determined by comparing the absorbance in wells containing cells and test compound to untreated cell control wells.

[2] = test system: Huh7, HepG2, BxPC3, or CEM cells; test: Cell Cytotoxicity Assays (MTS dye); settings: 50% inhibition value, 8 days, cell line not given
Protocol: as §1, §2

[3] = Cytotoxicity, MTT Assay (table footnote a)
[4] = Hepatitis C virus, 96 h, read-out: EC90

Row | SMILES | EC90 (HCV RNA replication; [4]) | CC50 [1] | other results
1 | COc1nc(N)nc2c1ncn2[C@@H]1O[C@H](COP(=O)(NCc2ccccc2)OCCSC(=O)C(C)(C)CO)[C@@H](O)[C@@]1(C)O (single isomer, unassigned) [Compound 131a] | 93 nM |  | CC50 at 8 days [1]: > 20000 nM
2 | COc1nc(N)nc2c1ncn2[C@@H]1O[C@H](COP(=O)(NCc2ccccc2)OCCSC(=O)C(C)(C)CO)[C@@H](O)[C@@]1(C)O (single isomer, unassigned) [Compound 131b] |  |  | EC90 (HCV RNA replication; read-out: EC90): 186 nM; CC50 [2]: > 20000 nM
3 | CC(C)(CO)C(=O)SCCOP(=O)(NCc1ccccc1)OC[C@H]1O[C@@H](n2cnc3c(=O)[nH]c(N)nc32)[C@](C)(O)[C@@H]1O (single isomer, unassigned) [Compound 132a] | 300 nM |  | CC50 at 8 days [1]: > 20000 nM
4 | CC(C)(CO)C(=O)SCCOP(=O)(NCc1ccccc1)OC[C@H]1O[C@@H](n2cnc3c(=O)[nH]c(N)nc32)[C@](C)(O)[C@@H]1O (single isomer, unassigned) [Compound 132b] |  |  | EC90 (HCV RNA replication; read-out: EC90): 350 nM; CC50 [2]: > 20000 nM
5 | CNC(=O)c1c(-c2ccc(F)cc2)oc2cc(N(CCO)S(C)(=O)=O)c(C3CC3)cc12 [Compound 44, 5-cyclopropyl-2-(4-fluorophenyl)-6-[(2-hydroxyethyl)(methylsulfonyl)amino]-N-methyl-3-Benzofurancarboxamide, reference compound] | 20 nM |  | CC50 [3]: > 10000 nM
6 | CC(C)OC(=O)[C@H](C)NP(=O)(OC[C@H]1O[C@@H](n2ccc(=O)[nH]c2=O)[C@](C)(F)[C@@H]1O)Oc1ccccc1 (stereo partly drawn) [Compound 110, (S)-2-{[(1R,4R,5R)-5-(2,4-Dioxo-3,4-dihydro-2H-pyrimidin-1-yl)-4-(R)-fluoro-3-hydroxy-4-methyl-tetrahydro-furan-2-ylmethoxy]-phenoxy-phosphorylamino}-propionic acid (S)-isopropyl ester] |  |  | EC90 (HCV RNA replication; read-out: EC90): 220 nM; CC50 [2]: > 20000 nM
7 | COc1nc(N)nc2c1ncn2[C@@H]1O[C@H](CO[P@@](=O)(N[C@@H](C)C(=O)OC(C)C)Oc2ccccc2)[C@@H](O)[C@@]1(C)F [Compound 117, SP-(2S)-isopropyl 2-(((((2R,3R,4R,5R)-5-(2-amino-6-methoxy-9H-purin-9-yl)-4-fluoro-3-hydroxy-4-methyltetrahydrofuran-2-yl)methoxy)(phenoxy)phosphoryl)amino)propanoate] | 130 nM | > 20000 nM | 
8 | COc1nc(N)nc2c1ncn2[C@@H]1O[C@H](CO[P@@](=O)(N[C@@H](C)C(=O)OC(C)C)Oc2ccccc2)[C@@H](O)[C@@]1(C)O [Compound 133, (S)-isopropyl 2-(((S)-(((2R,3R,4R,5R)-5-(2-amino-6-methoxy-9H-purin-9-yl)-3,4-dihydroxy-4-methyltetrahydrofuran-2-yl)methoxy)(phenoxy)phosphoryl)amino)propanoate] | 78 nM | 4140 nM | 
9 | CC(C)OC(=O)[C@H](C)N[P@](=O)(OC[C@H]1O[C@@H](n2cnc3c(=O)[nH]c(N)nc32)[C@](C)(O)[C@@H]1O)Oc1ccccc1 [Compound 134, (S)-isopropyl 2-(((S)-(((2R,3R,4R,5R)-5-(2-amino-6-oxo-1H-purin-9(6H)-yl)-3,4-dihydroxy-4-methyltetrahydrofuran-2-yl)methoxy)(phenoxy)phosphoryl)amino)propanoate] | 560 nM | > 20000 nM | 
10 | CNC(=O)c1c(-c2ccc(F)cc2)oc2cc(N(CCO[P@@](=O)(N[C@@H](C)C(=O)OC(C)C)Oc3ccccc3)S(C)(=O)=O)c(C3CC3)cc12 [Compound 135, (S)-isopropyl 2-(((S)-(2-(N-(5-cyclopropyl-2-(4-fluorophenyl)-3-(methylcarbamoyl)benzofuran-6-yl)methylsulfonamido)ethoxy)(phenoxy)phosphoryl)amino)propanoate] | 81 nM | > 20000 nM | 
11 | COc1nc(N)nc2c1ncn2[C@@H]1O[C@H](COP(=O)(N[C@@H](C)C(=O)OCC(C)(C)C)Oc2cccc3ccccc23)[C@@H](O)[C@@]1(C)O (stereo partly drawn) [Compound 137, (2S)-neopentyl 2-(((((2R,3R,4R,5R)-5-(2-amino-6-methoxy-9H-purin-9-yl)-3,4-dihydroxy-4-methyltetrahydrofuran-2-yl)methoxy)(naphthalen-1-yloxy)phosphoryl)amino)propanoate] |  |  | EC90 (HCV RNA replication; Hepatitis C virus, 96 h): 1.7 nM; CC50 at 8 days [1]: > 1000 nM
12 | COc1nc(N)nc2c1ncn2[C@@H]1O[C@H](COP(=O)(N[C@@H](C)C(=O)OCC(C)(C)C)Oc2cccc3ccccc23)[C@@H](O)[C@@]1(C)O (stereo partly drawn) [Compound 137a, (S)-neopentyl 2-(((((2R,3R,4R,5R)-5-(2-amino-6-methoxy-9H-purin-9-yl)-3,4-dihydroxy-4-methyltetrahydrofuran-2-yl)methoxy)(naphthalen-1-yloxy)phosphoryl)amino)propanoate] | 3.7 nM | 930 nM | 
13 | CC(C)OC(=O)[C@H](C)N[P@](=O)(OC[C@H]1O[C@@H](n2ccc3c(N)ncnc32)[C@](C)(O)[C@@H]1O)Oc1ccccc1 [Compound 139, (S)-2-{(S)-[(2R,3R,4R,5R)-5-(4-amino-pyrrolo[2,3-d]pyrimidin-7-yl)-3,4-dihydroxy-4-methyl-tetrahydro-furan-2-ylmethoxy]-phenoxy-phosphorylamino}-propionic acid isopropyl ester] | 20 nM | > 10000 nM | 
14 | COc1nc(N)nc2c1ncn2[C@@H]1O[C@H](COP(=O)(N[C@@H](C)C(=O)OCC(C)(C)C)Oc2cccc3ccccc23)[C@@H](O)[C@@]1(C)F (stereo partly drawn) [Compound 140, (2S)-neopentyl 2-(((((2R,3R,4R,5R)-5-(2-amino-6-methoxy-9H-purin-9-yl)-4-fluoro-3-hydroxy-4-methyltetrahydrofuran-2-yl)methoxy)(naphthalen-1-yloxy)phosphoryl)amino)propanoate] |  |  | EC90 (HCV RNA replication; Hepatitis C virus, 96 h): 3.5 nM; CC50 at 8 days [1]: > 20000 nM
